From US9062124B2, “GIP-based mixed agonists for treatment of metabolic disorders and obesity” (priority 2008, dated 2015)
Where a SMILES comes first, the peptide text is derived from it. Bridges are numbered along the chain shown (N, C = ends). Where no end group is shown, it is not given here. Side-chain parts run from the residue outwards. [ ]: non-standard residue; d: D form. Ac‑Cys(PEG 40 kDa) = Cys whose alpha-amino group is acetylated and whose side chain carries a 40 kDa PEG; Aib = CC(C)(N)C(=O)O

Key:
Format in all cases: cell-based
glucagon receptor = biological target: T1, glucagon receptor (Homo sapiens, UniProt P47871); assay: cAMP synthesis functional assay (firefly luciferase reporter in HEK293 cells), glucagon receptor; conditions: for EC50: Glucagon Receptor EC50, nM
T1 construct: expressed in transfected cells; host or cells: HEK293
T1 sequence (P47871 26-477): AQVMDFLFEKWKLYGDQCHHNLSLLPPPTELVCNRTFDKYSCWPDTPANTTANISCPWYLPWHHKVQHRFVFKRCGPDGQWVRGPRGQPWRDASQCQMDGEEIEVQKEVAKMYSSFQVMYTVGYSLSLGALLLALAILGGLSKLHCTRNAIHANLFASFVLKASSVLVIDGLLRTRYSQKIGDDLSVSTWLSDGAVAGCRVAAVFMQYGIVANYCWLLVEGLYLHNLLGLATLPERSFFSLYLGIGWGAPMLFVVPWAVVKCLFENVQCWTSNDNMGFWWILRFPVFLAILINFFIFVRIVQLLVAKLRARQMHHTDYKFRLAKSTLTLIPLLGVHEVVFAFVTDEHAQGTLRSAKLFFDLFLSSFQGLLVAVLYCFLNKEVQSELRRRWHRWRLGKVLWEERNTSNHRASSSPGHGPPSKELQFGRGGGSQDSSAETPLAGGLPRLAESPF

GLP-1 receptor = biological target: T2, GLP-1 receptor (Homo sapiens, UniProt P43220); assay: cAMP synthesis functional assay (firefly luciferase reporter in HEK293 cells), GLP-1 receptor
T2 construct: expressed in transfected cells; host or cells: HEK293
T2 sequence (P43220 24-463, species assumed): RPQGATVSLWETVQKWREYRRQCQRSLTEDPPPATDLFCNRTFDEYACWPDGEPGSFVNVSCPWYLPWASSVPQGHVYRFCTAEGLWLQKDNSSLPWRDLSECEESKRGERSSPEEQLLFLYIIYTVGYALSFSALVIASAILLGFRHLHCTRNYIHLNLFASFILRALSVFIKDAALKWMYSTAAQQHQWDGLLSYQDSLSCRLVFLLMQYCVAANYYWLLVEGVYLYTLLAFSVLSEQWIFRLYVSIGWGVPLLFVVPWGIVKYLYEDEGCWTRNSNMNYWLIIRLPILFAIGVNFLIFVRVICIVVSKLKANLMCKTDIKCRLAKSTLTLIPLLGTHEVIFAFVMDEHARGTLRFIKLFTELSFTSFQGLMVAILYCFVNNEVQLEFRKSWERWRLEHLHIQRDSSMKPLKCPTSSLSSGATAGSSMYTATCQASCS

GIP receptor = biological target: T3, GIP receptor (Homo sapiens, UniProt P48546); assay: cAMP synthesis functional assay (firefly luciferase reporter in HEK293 cells), GIP receptor
T3 construct: expressed in transfected cells; host or cells: HEK293
T3 sequence (P48546 22-466): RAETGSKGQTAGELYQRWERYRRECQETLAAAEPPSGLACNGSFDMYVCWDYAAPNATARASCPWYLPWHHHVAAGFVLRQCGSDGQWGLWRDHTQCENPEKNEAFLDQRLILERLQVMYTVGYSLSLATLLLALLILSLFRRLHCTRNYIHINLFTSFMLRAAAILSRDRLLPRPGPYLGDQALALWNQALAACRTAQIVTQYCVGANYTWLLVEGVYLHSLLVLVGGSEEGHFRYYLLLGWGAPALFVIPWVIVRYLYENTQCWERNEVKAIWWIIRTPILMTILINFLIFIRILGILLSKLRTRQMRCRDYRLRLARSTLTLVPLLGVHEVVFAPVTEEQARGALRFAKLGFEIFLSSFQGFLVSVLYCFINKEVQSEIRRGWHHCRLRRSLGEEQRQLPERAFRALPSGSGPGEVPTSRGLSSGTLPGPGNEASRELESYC

[1] = Table 1, relative to the native hormone of the indicated receptor
[2] = Table 4, relative to the native hormone

| Compound | Glucagon Receptor relative activity (glucagon receptor; [1]) [%] | GLP-1 Receptor relative activity (GLP-1 receptor; [1]) [%] | GIP Receptor relative activity (GIP receptor; [1]) [%] | Glucagon Receptor relative activity (glucagon receptor; [2]) [%] | GLP-1 Receptor relative activity (GLP-1 receptor; [2]) [%] | GIP Receptor relative activity (GIP receptor; [2]) [%] | EC50 (glucagon receptor; Table 1) [nM] |
| --- | --- | --- | --- | --- | --- | --- | --- |
| CC[C@H](C)[C@H](NC(=O)[C@H](CO)NC(=O)[C@H](Cc1ccc(O)cc1)NC(=O)[C@H](CC(=O)O)NC(=O)[C@H](CO)NC(=O)[C@@H](NC(=O)[C@H](Cc1ccccc1)NC(=O)[C@@H](NC(=O)CNC(=O)[C@H](CCC(=O)O)NC(=O)[C@H](C)NC(=O)[C@@H](N)Cc1c[nH]cn1)[C@@H](C)O)[C@@H](C)CC)C(=O)N[C@@H](C)C(=O)N[C@@H](CCSC)C(=O)N[C@@H](CC(=O)O)C(=O)N[C@H]1CCC(=O)NCCCC[C@@H](C(=O)N[C@@H](CC(=O)O)C(=O)N[C@@H](Cc2ccccc2)C(=O)N[C@H](C(=O)N[C@@H](CC(N)=O)C(=O)N[C@@H](Cc2c[nH]c3ccccc23)C(=O)N[C@@H](CC(C)C)C(=O)N[C@@H](CC(C)C)C(=O)N[C@@H](C)C(=O)N[C@@H](CCC(N)=O)C(N)=O)C(C)C)NC(=O)[C@H](CCC(N)=O)NC(=O)[C@H](Cc2c[nH]cn2)NC(=O)[C@H]([C@@H](C)CC)NC1=O [mt-95] (H-HAEGTFISDYSIAMDEIHQKDFVNWLLAQ-NH2; lactam 16-20; N-terminus assumed) | 0.04 | 0.08 | 10.54 |  |  |  |  |
| CC[C@H](C)[C@H](NC(=O)[C@H](CO)NC(=O)[C@H](Cc1ccc(O)cc1)NC(=O)[C@H](CC(=O)O)NC(=O)[C@H](CO)NC(=O)[C@@H](NC(=O)[C@H](Cc1ccccc1)NC(=O)[C@@H](NC(=O)CNC(=O)[C@H](CCC(N)=O)NC(=O)C(C)(C)NC(=O)[C@@H](N)Cc1ccc(O)cc1)[C@@H](C)O)[C@@H](C)CC)C(=O)N[C@@H](Cc1ccc(O)cc1)C(=O)N[C@@H](CC(C)C)C(=O)N[C@@H](CC(=O)O)C(=O)N[C@@H](CCCCN)C(=O)N[C@@H](CCC(N)=O)C(=O)N[C@@H](C)C(=O)N[C@@H](C)C(=O)NC(C)(C)C(=O)N[C@@H](CCC(=O)O)C(=O)N[C@@H](Cc1ccccc1)C(=O)N[C@H](C(=O)N[C@@H](CC(N)=O)C(=O)N[C@@H](Cc1c[nH]c2ccccc12)C(=O)N[C@@H](CC(C)C)C(=O)N[C@@H](CC(C)C)C(=O)N[C@@H](C)C(=O)NCC(=O)NCC(=O)N1CCC[C@H]1C(=O)N[C@@H](CO)C(=O)N[C@@H](CO)C(=O)NCC(=O)N[C@@H](C)C(=O)N1CCC[C@H]1C(=O)N1CCC[C@H]1C(=O)N1CCC[C@H]1C(=O)N[C@@H](CO)C(=O)N[C@@H](CCCCN)C(N)=O)C(C)C [mt-357] (H-Y[Aib]QGTFISDYSIYLDKQAA[Aib]EFVNWLLAGGPSSGAPPPSK-NH2; N-terminus assumed) |  |  |  | 260.92 | 0.86 | 206.37 |  |
| CC[C@H](C)[C@H](NC(=O)[C@H](CO)NC(=O)[C@H](Cc1ccc(O)cc1)NC(=O)[C@H](CC(=O)O)NC(=O)[C@H](CO)NC(=O)[C@@H](NC(=O)[C@H](Cc1ccccc1)NC(=O)[C@@H](NC(=O)CNC(=O)[C@H](CCC(N)=O)NC(=O)C(C)(C)NC(=O)[C@@H](N)Cc1ccc(O)cc1)[C@@H](C)O)[C@@H](C)O)C(=O)N[C@@H](Cc1ccc(O)cc1)C(=O)N[C@@H](CC(C)C)C(=O)N[C@@H](CC(=O)O)C(=O)N[C@@H](CCCCN)C(=O)N[C@@H](CCC(N)=O)C(=O)N[C@@H](C)C(=O)N[C@@H](C)C(=O)NC(C)(C)C(=O)N[C@@H](CCC(=O)O)C(=O)N[C@@H](Cc1ccccc1)C(=O)N[C@H](C(=O)N[C@@H](CC(N)=O)C(=O)N[C@@H](Cc1c[nH]c2ccccc12)C(=O)N[C@@H](CC(C)C)C(=O)N[C@@H](CCSC)C(=O)N[C@@H](CC(N)=O)C(=O)NCC(=O)NCC(=O)N1CCC[C@H]1C(=O)N[C@@H](CO)C(=O)N[C@@H](CO)C(=O)NCC(=O)N[C@@H](C)C(=O)N1CCC[C@H]1C(=O)N1CCC[C@H]1C(=O)N1CCC[C@H]1C(=O)N[C@@H](CO)C(=O)N[C@@H](CCCCN)C(N)=O)C(C)C [mt-356] (H-Y[Aib]QGTFTSDYSIYLDKQAA[Aib]EFVNWLMNGGPSSGAPPPSK-NH2; N-terminus assumed) |  |  |  | 126.06 | 224.02 | 25.66 |  |
| CC[C@H](C)[C@H](NC(=O)[C@H](Cc1ccccc1)NC(=O)[C@H](CCC(=O)O)NC(=O)[C@@H]1CCCCNC(=O)CC[C@H](NC(=O)[C@H](CC(=O)O)NC(=O)[C@H](CC(C)C)NC(=O)[C@H](Cc2ccc(O)cc2)NC(=O)[C@@H](NC(=O)[C@H](CO)NC(=O)[C@H](Cc2ccc(O)cc2)NC(=O)[C@H](CC(=O)O)NC(=O)[C@H](CO)NC(=O)[C@@H](NC(=O)[C@H](Cc2ccccc2)NC(=O)[C@@H](NC(=O)CNC(=O)[C@H](CCC(N)=O)NC(=O)[C@H](CO)NC(=O)[C@@H](N)Cc2c[nH]cn2)[C@@H](C)O)[C@@H](C)O)[C@@H](C)CC)C(=O)N[C@@H]([C@@H](C)CC)C(=O)N[C@@H](Cc2c[nH]cn2)C(=O)N[C@@H](CCC(N)=O)C(=O)N1)C(=O)N[C@@H](C)C(=O)N[C@@H](Cc1c[nH]c2ccccc12)C(=O)N[C@@H](CC(C)C)C(=O)N[C@@H](CCSC)C(=O)N[C@@H](CC(N)=O)C(=O)N[C@H](C(N)=O)[C@@H](C)O [mt-62] (H-HSQGTFTSDYSIYLDEIHQKEFIAWLMNT-NH2; lactam 16-20; N-terminus assumed) | 42.22 | 40.00 | 1.60 |  |  |  | 0.45 |
| CC[C@H](C)[C@H](NC(=O)[C@H](CO)NC(=O)[C@H](Cc1ccc(O)cc1)NC(=O)[C@H](CC(=O)O)NC(=O)[C@H](CO)NC(=O)[C@@H](NC(=O)[C@H](Cc1ccccc1)NC(=O)[C@@H](NC(=O)CNC(=O)[C@H](CCC(N)=O)NC(=O)[C@H](CO)NC(=O)[C@@H](N)Cc1ccc(O)cc1)[C@@H](C)O)[C@@H](C)CC)C(=O)N[C@@H](Cc1ccc(O)cc1)C(=O)N[C@@H](CC(C)C)C(=O)N[C@@H](CC(=O)O)C(=O)N[C@H]1CCC(=O)NCCCC[C@@H](C(=O)N[C@@H](CCC(=O)O)C(=O)N[C@@H](Cc2ccccc2)C(=O)N[C@H](C(=O)N[C@@H](CC(N)=O)C(=O)N[C@@H](Cc2c[nH]c3ccccc23)C(=O)N[C@@H](CC(C)C)C(=O)N[C@@H](CC(C)C)C(=O)N[C@@H](C)C(=O)NCC(=O)NCC(=O)N2CCC[C@H]2C(=O)N[C@@H](CO)C(=O)N[C@@H](CO)C(=O)NCC(=O)N[C@@H](C)C(=O)N2CCC[C@H]2C(=O)N2CCC[C@H]2C(=O)N2CCC[C@H]2C(=O)N[C@@H](CO)C(N)=O)C(C)C)NC(=O)[C@H](C)NC(=O)[C@H](C)NC(=O)[C@H](CCC(N)=O)NC1=O [mt-150] (H-YSQGTFISDYSIYLDEQAAKEFVNWLLAGGPSSGAPPPS-NH2; lactam 16-20; N-terminus assumed) | 316.67 | 1.09 | 26.72 |  |  |  |  |
| CC(C)C[C@H](NC(=O)[C@H](CC(C)C)NC(=O)[C@H](Cc1c[nH]c2ccccc12)NC(=O)[C@H](CC(N)=O)NC(=O)[C@@H](NC(=O)[C@H](Cc1ccccc1)NC(=O)[C@H](CCC(=O)O)NC(=O)[C@@H]1CCCCNC(=O)CC[C@H](NC(=O)[C@H](CC(=O)O)NC(=O)[C@H](CC(C)C)NC(=O)[C@H](Cc2ccc(O)cc2)NC(=O)[C@H](CCCCN)NC(=O)[C@H](CO)NC(=O)[C@H](Cc2ccc(O)cc2)NC(=O)[C@H](CC(=O)O)NC(=O)[C@H](CO)NC(=O)[C@@H](NC(=O)[C@H](Cc2ccccc2)NC(=O)[C@@H](NC(=O)CNC(=O)[C@H](CCC(N)=O)NC(=O)[C@H](CO)NC(=O)[C@@H](N)Cc2ccc(O)cc2)[C@@H](C)O)[C@@H](C)O)C(=O)N[C@@H](CCC(N)=O)C(=O)N[C@@H](C)C(=O)N[C@@H](C)C(=O)N1)C(C)C)C(=O)N[C@@H](C)C(=O)NCC(=O)NCC(=O)N1CCC[C@H]1C(=O)N[C@@H](CO)C(=O)N[C@@H](CO)C(=O)NCC(=O)N[C@@H](C)C(=O)N1CCC[C@H]1C(=O)N1CCC[C@H]1C(=O)N1CCC[C@H]1C(=O)N[C@@H](CO)C(N)=O [mt-127] (H-YSQGTFTSDYSKYLDEQAAKEFVNWLLAGGPSSGAPPPS-NH2; lactam 16-20; N-terminus assumed) | 718.39 | 87.75 | 10.51 |  |  |  | 0.044 |
| mt-227: pegylated monomer with lactam bridge between Glu16 and Lys20, PEG attached via dipeptide spacer (Y[Aib]QGTFTSDYSIYLDEQAAKEFVNWLLAGGPSSGAPPPSK([Arg-Ac‑Cys(PEG 40 kDa)])-NH2; lactam 16-20) |  |  |  | 1.27 | 36.25 | 1.29 |  |
| CC[C@H](C)[C@H](NC(=O)[C@H](Cc1ccccc1)NC(=O)[C@H](CCC(=O)O)NC(=O)[C@@H]1CCCCNC(=O)CC[C@H](NC(=O)[C@H](CC(=O)O)NC(=O)[C@H](CC(C)C)NC(=O)[C@H](Cc2ccc(O)cc2)NC(=O)[C@H](CCCCN)NC(=O)[C@H](CO)NC(=O)[C@H](Cc2ccc(O)cc2)NC(=O)[C@H](CC(=O)O)NC(=O)[C@H](CO)NC(=O)[C@@H](NC(=O)[C@H](Cc2ccccc2)NC(=O)[C@@H](NC(=O)CNC(=O)[C@H](CCC(N)=O)NC(=O)[C@H](CO)NC(=O)[C@@H](N)Cc2c[nH]cn2)[C@@H](C)O)[C@@H](C)CC)C(=O)N[C@@H]([C@@H](C)CC)C(=O)N[C@@H](Cc2c[nH]cn2)C(=O)N[C@@H](CCC(N)=O)C(=O)N1)C(=O)N[C@@H](C)C(=O)N[C@@H](Cc1c[nH]c2ccccc12)C(=O)N[C@@H](CC(C)C)C(=O)N[C@@H](CCSC)C(=O)N[C@@H](CC(N)=O)C(=O)N[C@H](C(N)=O)[C@@H](C)O [mt-107] (H-HSQGTFISDYSKYLDEIHQKEFIAWLMNT-NH2; lactam 16-20; N-terminus assumed) | 185.71 | 0.16 | 0.74 |  |  |  | 0.07 |
